Data published in patent publication US11517645B2, “Bone-tendon graft biomaterial, use as a medical device and method of making same” (The Board of Trustees of the Leland Stanford Junior …, priority 2016, dated 2022).

What was measured:
[1] = tested on: C2C12 cells; test: ALP staining, C2C12 osteoblast differentiation on QHM polymers with BMP-2 in media; format: cell-based, mouse; settings: 25 μM blebbistatin
Method: ALP activity was detected according to the manufacturer's instructions (Sigma Aldrich, St. Louis, Mo.) as previously described with minor modifications^18,19.
(§1) For studies on the effect of Young's moduli on osteoblast differentiation (using uniform QHM polymer samples), C2C12 cells were seeded into 24 well plates containing uncoated QHM polymer samples (circular discs approximately 1 cm in diameter) at a density of 7.47×10^4 cells per cm^2 overnight in DMEM, 10% FBS and 1% PS media. […] Media were changed every 48 h. ALP staining was performed at 4, 8 and 14 days.
as §1, with “0 s:300 s UV mechanically-graded” for “uniform”, “(rectangular specimens measuring” for “(circular discs”, “0.5 cm×1 cm)” for “1 cm in diameter)”, “were” for “was”, “3 days post-seeding.” for “4, 8 and 14 days.”
At designated time points, cells were fixed for 1 min in 3.7% formaldehyde and samples were incubated with ALP stain for 1 h. Color images of samples were acquired using an inverted Zeiss AxioObserver Z1 microscope equipped with an AxioCam ICC color camera and a Nikon D70 Digital camera (Nikon Corp., Tokyo, Japan). Where required, the ALP-stained images were quantified by calculating the average pixel intensity in Adobe Photoshop 7.0 as previously described^18,19.

[2] = tested on: C2C12 cells; test: SCX immunofluorescence, C2C12 tenocyte differentiation on QHM polymers; format: cell-based, mouse; settings: fibrin-coated QHM polymers in vitro, 3 days
Method: (§2) Immunofluorescence staining was performed as previously described with minor modifications^18,19.
For studies on the effect of Young's moduli on osteoblast or tenocyte differentiation (using uniform or 0 s:300 s UV mechanically-graded QHM polymer samples), C2C12 cells were seeded into 24 well plates containing uncoated QHM polymer samples (circular discs approximately 1 cm in diameter or rectangular specimens measuring approximately 0.5 cm×1 cm) at a density of 7.47×10^4 cells per cm^2 overnight in DMEM, 10% FBS and 1% PS media. […] Media were changed every 48 h. SCX staining was performed at 3 days post-seeding. RUNT-RELATED TRANSCRIPTION FACTOR-2 (RUNX-2) or OSTEOCALCIN (OCN) staining was performed at 4 days post-seeding. […]
(§3) Samples were permeabilized with 0.2% Triton X-100 (Sigma Aldrich, St. Louis, Mo.), washed three times in wash buffer (PBS and 0.1% BSA) and blocked with 10% donkey serum (Jackson Immunoresearch, West Gove, Pa.) for 1 h at room temperature. […] Lastly, cells were rinsed five times with wash buffer (5 min each) and fluorescence images were acquired on an inverted Zeiss AxioObserver Z1 microscope equipped with an X-Cite® Series 120Q metal halide lamp, appropriate filters and an AxioCam MRm camera.

[3] = tested on: C2C12 cells; test: TENASCIN C and TENOMODULIN immunofluorescence, C2C12 on TCPS with FGF-2; format: cell-based, mouse; settings: 50 or 100 ng/mL FGF-2, TCPS, 3 days
Method: as §2
For in vitro studies not involving QHM polymers, C2C12 cells were seeded into 24 well plates at a density of 7.47×10^4 cells per cm^2 in DMEM, 10% FBS, 1% PS media. The following day (Day 0), the media were changed to DMEM, 10% FBS, 1% PS with 0, 50 or 100 ng/mL FGF-2. Media were changed every 48 h. Cells were fixed in 4% paraformaldehyde (Electron Microscopy Sciences, Hatfield, Pa.) for 15 min and TENOMODULIN or TENASCIN C staining was performed at 3 days post-seeding.
as §3

[4] = tested on: C57BL-6J mice; test: Mouse subcutaneous implantation of growth factor-biopatterned QHM grafts; format: in vivo; settings: 3 μg patterned on fibrin-coated QHM polymer, 14 days subcutaneous
Method: Mouse subcutaneous surgeries were performed in accordance with the guidelines established by Stanford University's Administrative Panel on Laboratory Animal Care. Wild-type C57BL-6J mice (Charles River Laboratories, Wilmington, Mass.) between 8 and 12 weeks of age (20-30 g) were used in this study. All mice were maintained in the Stanford Animal Facility, with a 12:12 h light-dark cycle and free access to standard laboratory food and water. Mice were anesthetized by inhalation with isoflurane (4% for induction, 2% for maintenance, Abbott Laboratories, Chicago) as well as administered 0.05 mg/kg Buprenorphine (Hospira Inc., Lake Forest, Ill.) and 25 mg/kg Cefazolin (Thermo Fisher Scientific, Waltham, Mass.) as an analgesic and anti-infective, respectively. Grafts (Square specimens 6×6×1 mm) were comprised of 0 s UV and 300 s UV QHM polymer regions (each measuring 3×3×1 mm) biopatterned with 1) no growth factor, 2) 3 μg FGF-2 on 0 s UV QHM polymer region and 3 μg BMP-2 on 300 s UV QHM polymer region or 3) 3 μg GDF-7 on 0 s UV QHM polymer region and 3 μg BMP-2 on 300 s UV QHM polymer region. Under sterile conditions, a 2.5 cm skin incision was made and grafts were sutured subcutaneously to the skin using 3-0 Nylon sutures (Oasis, Med-Vet International, Mettawa, Ill.) in a bilateral manner. Subsequently, the skin was re-approximated and closed with 3-0 Nylon sutures. […]

**Q.** How did the “Effect on BMP-2-induced ALP activity on QHM polymers” value ([1]; 4 days) turn out when `Cc1ccc2c(c1)C(=O)C1(O)CCN(c3ccccc3)C1=N2` (stereo not drawn) [blebbistatin] was run?
**A.** inhibited slightly

**Q.** What about the “Effect on C2C12 ALP activity on TCPS” value ([1]; 4 days) of the same molecule?
**A.** did not inhibit

**Q.** What about the “Inhibitory effect on ALP activity” value ([1]; 8 days) of the same molecule?
**A.** occurred only on 0 s UV QHM polymer

**Q.** And the “Inhibitory effect on ALP activity” value ([1]; 14 days)?
**A.** no longer observed

**Q.** Which “C2C12 SCX expression on FGF-2 patterns relative to off pattern controls” value [2] does the source give for “FGF-2: fibroblast growth factor-2 (Peprotech), tendon-promoting cue” here?
**A.** largely increased

**Q.** What about the “TENASCIN C expression relative to untreated controls” value [3] of the same molecule?
**A.** increased TENASCIN C expression

**Q.** And the “TENOMODULIN expression relative to untreated controls” value [3]?
**A.** increased TENOMODULIN expression

**Q.** And the “Tissue formed on growth factor pattern in vivo” value [4]?
**A.** reminiscent of immature tendon

B1: GDF-7: growth and differentiation factor-7 (Sino Biological), tendon-promoting cue (protein, UniProt Q7Z4P5 322-450, looked up)
Growth/differentiation factor …: TALAGTRTAQGSGGGAGRGHGRRGRSRCSRKPLHVDFKELGWDDWIIAPLDYEAYHCEGLCDFPLRSHLEPTNHAIIQTLLNSMAPDAAPASCCVPARLSPISILYIDAANNVVYKQYEDMVVEACGCR
**Q.** B1 was tested. Which “Tissue formed on growth factor pattern in vivo” value [4] did it give?
**A.** reminiscent of immature tendon
